We go through four molecules from patent US20160175306A1, “COMBINATION OF A IMIDAZOPYRIDAZINE DERIVATIVE AND A MITOTIC AGENT FOR THE TREATMENT OF CANCER” (BAYER PHARMA AKTIENGESELLSCHAFT, priority 2013, published 2016).

“And” between values parts separate entries of the source, which are not always exact repeats. Equal values may be shown once. Read-outs that look alike come from different tables or passages of the source. Marks after values point to notes of the source that are not given here. Bounds are passed on as bounds.

The target of one data set is T1, human CYP3A4 (Homo sapiens, UniProt P08684).
T1 construct: Human liver microsomal preparation (pool of HLM) was applied for the assay; from tissue; host or cells: pooled human liver microsomes
T1 sequence (P08684 whole entry): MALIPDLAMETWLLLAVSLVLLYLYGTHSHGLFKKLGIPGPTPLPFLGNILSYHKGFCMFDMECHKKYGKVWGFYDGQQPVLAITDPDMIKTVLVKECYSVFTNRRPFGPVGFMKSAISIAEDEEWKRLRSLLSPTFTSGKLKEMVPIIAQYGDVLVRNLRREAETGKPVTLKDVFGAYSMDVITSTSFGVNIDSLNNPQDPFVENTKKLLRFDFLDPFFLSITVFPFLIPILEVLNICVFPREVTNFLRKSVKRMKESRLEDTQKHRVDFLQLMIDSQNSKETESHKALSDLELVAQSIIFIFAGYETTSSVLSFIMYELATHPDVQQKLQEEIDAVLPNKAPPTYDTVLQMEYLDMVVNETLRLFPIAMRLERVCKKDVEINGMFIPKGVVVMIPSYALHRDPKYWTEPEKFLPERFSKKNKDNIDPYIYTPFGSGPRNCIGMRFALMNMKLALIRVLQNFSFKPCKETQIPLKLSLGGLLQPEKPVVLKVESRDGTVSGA
In words: Determination of inhibitory potential on human CYP3A4. It is filed as in vitro ADME. The following applies: human liver microsomes, midazolam substrate; read-out: inhibition of liver enzyme CYP3A4. The protocol:
Determination of Inhibitory Potential on Human CYP3A4
The potential of the test compound to act as a competitive inhibitor of CYP3A4 was evaluated in in vitro assays, using human liver microsomes and the reference substrate midazolam. The test compound was solved in acetonitrile. Human liver microsomal preparation (pool of HLM) was applied for the assay.
A stock solution of the test compound was added to phosphate buffer containing EDTA, NADP, glucose 6-phosphate, and glucose 6-phosphate dehydrogenase. This mixture was sequentially diluted on a Genesis Workstation (Tecan, Crailsheim, FRG). After pre-warming, reaction was initiated by addition of a mixture of probe substrate (midazolam). […] The reference samples (substrate, but no inhibitor) were incubated in parallel in sextuple and contained the same amount of solvent as the test incubations. Reactions were stopped by addition of 100 μL acetonitrile containing the internal standard. Precipitated proteins were removed by centrifugation of the well plate, supernatants were analyzed by LC-MS/MS.
The CYP3A4-mediated metabolic activity in the presence of the test compounds was expressed as percentages of the corresponding reference value. […]
(Liver microsomes are vesicles of endoplasmic reticulum, rich in cytochrome P450 enzymes.)

In data set [1] the test system is spindle assembly checkpoint in HeLa cells (phosphorylated histone H3 on serine 10). In words: Spindle Assembly Checkpoint Assay. It counts as cell-based. As to conditions: Homo sapiens, nocodazole 0.1 μg/ml, 4 h with compound. The text has this: The spindle assembly checkpoint assures the proper segregation of chromosomes during mitosis. Upon entry into mitosis, chromosomes begin to condensate which is accompanied by the phosphorylation of histone H3 on serine 10. Dephosphorylation of histone H3 on serine 10 begins in anaphase and ends at early telophase. Accordingly, phosphorylation of histone H3 on serine 10 can be utilized as a marker of cells in mitosis. Nocodazole is a microtubule destabilizing substance. Thus, nocodazole interferes with microtubule dynamics and mobilises the spindle assembly checkpoint. […] An inhibition of the spindle assembly checkpoint by Mps-1 inhibitors overrides the mitotic blockage in the presence of nocodazole, and the cells complete mitosis prematurely. This alteration is detected by the decrease of cells with phosphorylation of histone H3 on serine 10. This decline is used as a marker to determine the capability of compounds of the present invention to induce a mitotic breakthrough.
Cultivated cells of the human cervical tumour cell line HeLa (ATCC CCL-2) were plated at a density of 2500 cells/well in a 384-well microtiter plate in 20 μl Dulbeco's Medium (w/o phenol red, w/o sodium pyruvate, w […] glucose, w pyridoxine) supplemented with 1% (v/v) glutamine, 1% (v/v) penicillin, 1% (v/v) streptomycin and 10% (v/v) fetal calf serum. After incubation overnight at 37° C., 10 μl/well nocodazole at a final concentration of 0.1 μg/ml were added to cells. After 24 h incubation, cells were arrested at G2/M phase of the cell cycle progression. […] Images were acquired with a Perkin Elmer OPERA™ High-Content Analysis reader. Images were analyzed with image analysis software MetaXpress™ from Molecular devices utilizing the Cell Cycle application module. In this assay both labels HOECHST 33342 and phosphorylated Histone H3 on serine 10 were measured. […] The raw assay data were further analysed by four parameter logistic regression analysis to determine the IC50 value for each tested compound.

Data set [2] concerns HeLa human cervical tumour cells. In words: Proliferation Assay with HeLa cells. The following applies: 96 h, 4 days, crystal violet. It is filed as cell-based. The protocol:
After 24 hours, the cells of one plate (zero-point plate) were stained with crystal violet (see below), while the medium of the other plates was replaced by fresh culture medium (200 μl), to which the test substances were added in various concentrations (0 μM, as well as in the range of 0.01-30 μM; the final concentration of the solvent dimethyl sulfoxide was 0.5%). The cells were incubated for 4 days in the presence of test substances. […] After three washing cycles of the fixed cells with water, the plates were dried at room temperature. The cells were stained by adding 100 μl/measuring point of a 0.1% crystal violet solution (pH 3.0). After three washing cycles of the stained cells with water, the plates were dried at room temperature. The dye was dissolved by adding 100 μl/measuring point of a 10% acetic acid solution. […] The change of cell number, in percent, was calculated by normalization of the measured values to the extinction values of the zero-point plate (=0%) and the extinction of the untreated (0 μm) cells (=100%). The IC50 values were determined by means of a 4 parameter fit using the company's own software.

The test system of data set [3] is NCI-H1299 human NSCLC xenograft model. As to conditions: for T/C weight: mean final tumor weight. The source says:
In Vivo Anti-Tumor Efficacy of Mps-1 Kinase Inhibitors of the Present Invention in Combination with Paclitaxel in NCI-H1299 Human NSCLC Model in Nude Mice
The effect of combination treatment of an Mps-1 kinase inhibitor of the present invention and paclitaxel was studied in the NCI-H1299 taxane intrinsically resistant human lung carcinoma (NSCLC) xenograft model in nude mice. […] Substances were formulated in optimal vehicles to achieve solutions. Animal body weight and tumor size were determined three times weekly. Treatment for all groups started at a tumor size of 30 mm^2, at day 8 after tumor cell inoculation. […] At the end of the study after one final treatment plasma and tumors were sampled for PK analysis and final tumor weight was determined.

For data set [4], the system named is A2780cis human ovarian cancer xenograft model. The following applies: for T/C weight: mean final tumor weight. The procedure: In Vivo Anti-Tumor Efficacy of Mps-1 Kinase Inhibitors of the Present Invention in Combination with Paclitaxel in A2780cis Human Ovarian Cancer Model in Nude Mice
The effect of combination treatment of an Mps-1 kinase inhibitor of the present invention and paclitaxel was studied in the adaptive cisplatin-resistant and paclitaxel intrinsically resistant A2780cis xenograft model. […] Animal body weight and tumor size were determined three times weekly. Treatment for all groups started at a tumor size of 29 mm^2, at day 6 after tumor cell inoculation. […] At the end of the study after one final treatment plasma and tumors were sampled for PK analysis and final tumor weight was determined.

The mark [5] stands for this setting: Compound A27 2 mg/kg 2QD 2on/5off p.o.
Where [6] appears, read: Compound A27 3 mg/kg 2QD 2on/5off p.o.
Where [7] appears, read: Paclitaxel 20/15 (d19) mg/kg QD 2on/6off i.v.
The mark [8] stands for this setting: Paclitaxel 20/15 (d19) mg/kg QD 2on/6off i.v., relative tumor area at control dosing stop.

For the molecule `COc1ccc(Oc2cc(NCC3COC3)c3ncc(-c4ccc(C(=O)NC5CC5)c(C)c4)n3n2)cc1F` [Compound A26, N-cyclopropyl-4-{6-(3-fluoro-4-methoxyphenoxy)-8-[(oxetan-3-ylmethyl)amino]imidazo[1,2-b]pyridazin-3-yl}-2-methylbenzamide], the values for the IC50 (on human CYP3A4; in data set [1]; in data set [2]) were at least 5000 nM, under 1 nM and under 25 nM, respectively.
As to `COc1ccc(Oc2cc(NCCC(F)(F)F)c3ncc(-c4ccc(C(=O)NC5CC5)c(C)c4)n3n2)c(F)c1F` [Compound A27, N-cyclopropyl-4-{6-(2,3-difluoro-4-methoxyphenoxy)-8-[(3,3,3-trifluoropropyl)amino]imidazo[1,2-b]pyridazin-3-yl}-2-methylbenzamide], the “Fatal Tox” value in data set [3] (setting [5]), in data set [3] (setting [6]), in data set [4] (setting [5]) and in data set [4] (setting [6]) was 0/10 each time. In addition, the T/C weight in data set [3] (setting [5]) is reported as 1.18; in data set [3] (setting [6]), 0.74; in data set [4] (setting [5]), 0.98; in data set [4] (setting [6]), 0.88. The T/C area in data set [3] (Compound A27 2 mg/kg 2QD 2on/5off p.o., relative tumor area at control dosing stop (22 treatment days)) was 0.99 and 0.98; in data set [3] (Compound A27 3 mg/kg 2QD 2on/5off p.o., relative tumor area at control dosing stop (22 treatment days)), 0.64; in data set [4] (Compound A27 2 mg/kg 2QD 2on/5off p.o., relative tumor area at control dosing stop (15 treatment days)), 1.00; in data set [4] (Compound A27 3 mg/kg 2QD 2on/5off p.o., relative tumor area at control dosing stop (15 treatment days)), 0.90. In addition, in data set [1], the IC50 is under 1 nM.
On to `COc1ccc(Oc2cc(NCC3CCOCC3)c3ncc(-c4ccc(C(=O)NC5CC5)c(C)c4)n3n2)c(F)c1F` [Compound A28, N-cyclopropyl-4-{6-(2,3-difluoro-4-methoxyphenoxy)-8-[(tetrahydro-2H-pyran-4-ylmethyl)amino]imidazo[1,2-b]pyridazin-3-yl}-2-methylbenzamide], for which the results for the IC50 (on human CYP3A4; in data set [1]; in data set [2]) were at least 5000 nM, under 1 nM and under 25 nM, respectively.
`CC(=O)O[C@H]1C(=O)[C@@]2(C)[C@H]([C@H](OC(=O)c3ccccc3)[C@]3(O)C[C@H](OC(=O)[C@H](O)[C@@H](NC(=O)c4ccccc4)c4ccccc4)C(C)=C1C3(C)C)[C@]1(OC(C)=O)CO[C@@H]1C[C@@H]2O` [Paclitaxel, (2α,4α,5β,7β,10β,13α)-4,10-bis(acetyloxy)-13-{[(2R,3S)-3-(benzoylamino)-2-hydroxy-3-phenylpropanoyl]oxy}-1,7-dihydroxy-9-oxo-5,20-epoxytax-11-en-2-yl benzoate, reference compound]: the “Fatal Tox” value in data set [3] (setting [7]) and in data set [4] (setting [7]) was 0/10 each time. Moreover, the T/C area in data set [3] (setting [8]) is recorded as 0.13^#; in data set [3] (Paclitaxel 20/15 (d19) mg/kg QD 2on/6off i.v., relative tumor area at control dosing stop, listed as paclitaxel), 0.13; in data set [4] (setting [8]), 0.06^#. Moreover, the “Max. Body weight loss” value in data set [3] (mouse, in vivo, iv) is −1.9%; in data set [4] (mouse, in vivo, iv), −0.7%.
